According to patent publication US20240368150A1 (Hoffmann-La Roche Inc., priority 2021, published 2024):
Where two headings read alike, the source gives them in different places.

Legend:
[1] = system: primary human T-cells; assay: Proliferation assay after 5 days (CellTiter-Glo, CD3 stimulation; PBS counter screen); type: cell-based; settings: CD3 stimulation; for Emax: read-out: Emax proliferation (% activation); for EC50: primary human T-cells, CellTiter-Glo after 5 days, EC50 of fitted sigmoidal curve, read-out: Tcell Proliferation CD3 EC50
Procedure, shortened: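 Compounds were added to medium-only plates, and proliferation was read 5 days later as luminescence from CellTiter-Glo 2.0, whose ATP signal is proportional to cell number. Plates and reagent were equilibrated to room temperature for 45 min before an equal volume of reagent was added, with 15 min rocking.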

[2] = system: primary human T-cells
[3] = system: MV-3 cells; assay: T-cell - TCB - MV3 killing assay (MCSP-TCB, RFP object count by Incucyte); type: cell-based, human
[4] = Homo sapiens, T-cell, 120 h, 5 days, normalized to reference compound A1 as stimulator control = 100%, DMSO neutral control
[5] = Homo sapiens, MV-3, 120 h, normalized: MCSP-TCB only = neutral control, 20 μM reference compound A1 = 100%; 5 d; read-out: MSCP TCB killing MV-3 cells 5 d Emax
[6] = primary human T-cells + MCSP-TCB, MV-3 RFP cells, 5 d; read-out: MSCP TCB killing MV-3 cells 5 d EC50
[7] = Homo sapiens, MV-3, 120 h, primary human T-cells + MCSP-TCB, MV-3 RFP cells, 5 d; read-out: MSCP TCB killing MV-3 cells 5 d EC50

SMILES | Emax [1, 4] [%] | EC50 ([1]; Homo sapiens, T-cell, 120 h) [nM] | EC50 [2] [nM] | Emax [3, 5] [%] | EC50 [3, 6] [nM] | EC50 [1] [nM] | MSCP TCB killing MV-3 cells 5 d Emax ([3]; normalized: MCSP-TCB only = neutral control, 20 μM reference compound A1 = 100%; 5 d) [%] | EC50 ([1]; T-cell, 120 h) [nM] | Emax ([3]; Homo sapiens, MV-3, 120 h, read-out: MSCP TCB killing MV-3 cells 5 d Emax) [%] | EC50 ([3]; read-out: MSCP TCB killing MV-3 cells 5 d EC50; primary human T-cells + MCSP-TCB, MV-3 RFP cells, 5 d) [nM] | Emax proliferation (% activation) ([1]; 5 days, normalized to reference compound A1 as stimulator control = 100%, DMSO neutral control) | EC50 [3, 7] [nM]
COC(=O)N1CCC(C)(c2nnc(-c3cc4c(cc3F)S(=O)(=O)C[C@H](N)C(=O)N4Cc3ccc(Cl)cc3)o2)CC1 [Example 171, methyl 4-methyl-4-[5-[(3R)-3-amino-5-[(4-chlorophenyl)methyl]-8-fluoro-1,1,4-trioxo-2,3-dihydro-1λ^6,5-benzothiazepin-7-yl]-1,3,4-oxadiazol-2-yl]piperidine-1-carboxylate] | 93 | 55.5 | 75.7 | 100 | 40 | – | – | – | – | – | – | –
CC(C)(C)c1nnc(-c2cc3c(cc2F)[S+]([O-])C[C@H](N)C(=O)N3Cc2ccc(Cl)cc2)o1 (stereo partly drawn) [Example 186, (3R)-3-amino-7-(5-tert-butyl-1,3,4-oxadiazol-2-yl)-5-[(4-chlorophenyl)methyl]-8-fluoro-1-oxo-2,3-dihydro-1λ^4,5-benzothiazepin-4-one] | 94 | – | 158 | – | 130 | 710 | 100 | – | – | – | – | –
CC(C)(C)c1nnc(-c2cc3c(cc2F)S(=O)(=O)C[C@H](N)C(=O)N3Cc2ccc(C#N)cc2)o1 [Example 220, 4-[[(3R)-3-amino-7-(5-tert-butyl-1,3,4-oxadiazol-2-yl)-8-fluoro-1,1,4-trioxo-2,3-dihydro-1λ^6,5-benzothiazepin-5-yl]methyl]benzonitrile] | 102 | – | 238 | – | – | – | – | 564 | 100 | 390 | – | –
CC(C)(C)c1nnc(-c2cc3c(cc2F)S(=O)(=O)C[C@H](N)C(=O)N3Cc2ccc(OC(F)(F)C(F)F)cc2)o1 [Example 232, (3R)-3-amino-7-(5-tert-butyl-1,3,4-oxadiazol-2-yl)-8-fluoro-1,1-dioxo-5-[[4-(1,1,2,2-tetrafluoroethoxy)phenyl]methyl]-2,3-dihydro-1λ^6,5-benzothiazepin-4-one] | 127 | 57.6 | 37 | 83 | 30 | – | – | – | – | – | – | –
CC(C)(C)c1nnc(-c2cc3c(cc2F)S(=O)(=O)C[C@H](N)C(=O)N3Cc2ccc(Cl)nc2)o1 [Example 237, (3R)-3-amino-7-(5-tert-butyl-1,3,4-oxadiazol-2-yl)-5-[(6-chloro-3-pyridyl)methyl]-8-fluoro-1,1-dioxo-2,3-dihydro-1λ^6,5-benzothiazepin-4-one] | 106 | 1300 | 526 | 84 | 450 | – | – | – | – | – | – | –
CC(C)Oc1ccc(CN2C(=O)[C@@H](N)CS(=O)(=O)c3cc(F)c(-c4nnc(C(C)(C)C)o4)cc32)cn1 [Example 249, (3R)-3-amino-7-(5-tert-butyl-1,3,4-oxadiazol-2-yl)-8-fluoro-5-[(6-isopropoxy-3-pyridyl)methyl]-1,1-dioxo-2,3-dihydro-1λ^6,5-benzothiazepin-4-one] | 161 | 1240 | > 10000 | 100 | 210 | – | – | – | – | – | – | –
CC(C)Oc1ccc(CN2C(=O)[C@@H](N)CS(=O)(=O)c3cc(F)c(-c4nnc(C(C)(C)C)o4)cc32)cc1 [Example 254, (3R)-3-amino-7-(5-tert-butyl-1,3,4-oxadiazol-2-yl)-8-fluoro-5-[(4-isopropoxyphenyl)methyl]-1,1-dioxo-2,3-dihydro-1λ^6,5-benzothiazepin-4-one] | 95 | < 15.1 | 59.5 | 104 | 10 | – | – | – | – | – | – | –
C[C@H](N)C(=O)N[C@H]1CS(=O)(=O)c2cc(F)c(-c3nnc(C(C)(C)C)o3)cc2N(Cc2ccc(Cl)cc2)C1=O [Example 262] | 101 | < 162 | < 162 | 92 | 30 | – | – | – | – | – | – | –
CC[C@H](NC)C(=O)N[C@H]1CS(=O)(=O)c2cc(F)c(-c3nnc(C(C)(C)C)o3)cc2N(Cc2ccc(Cl)cc2)C1=O [Example 270, (2S)-2-(methylamino)-N-[(3R)-7-(5-tert-butyl-1,3,4-oxadiazol-2-yl)-5-[(4-chlorophenyl)methyl]-8-fluoro-1,1,4-trioxo-2,3-dihydro-1λ^6,5-benzothiazepin-3-yl]butanamide] | – | – | 57.4 | 81 | 20 | 39.7 | – | – | – | – | 111 | –
Cc1cc2c(cc1-c1nnc(C(C)(C)C)o1)N(Cc1ccc(Cl)cc1)C(=O)[C@@H](N)CS2(=O)=O [Example 272, (3R)-3-amino-7-(5-tert-butyl-1,3,4-oxadiazol-2-yl)-5-[(4-chlorophenyl)methyl]-8-methyl-1,1-dioxo-2,3-dihydro-1λ^6,5-benzothiazepin-4-one] | 102 | 790 | 1700 | 100 | 1090 | – | – | – | – | – | – | –
CC(C)(C)n1cc(-c2cc3c(cc2F)S(=O)(=O)C[C@H](N)C(=O)N3Cc2ccc(Cl)cc2)cn1 [Example 278, (3R)-3-amino-7-(1-tert-butylpyrazol-4-yl)-5-[(4-chlorophenyl)methyl]-8-fluoro-1,1-dioxo-2,3-dihydro-1λ^6,5-benzothiazepin-4-one] | 102 | 1080 | 177 | 100 | 830 | – | – | – | – | – | – | –
CC(C)(C)c1cnn(-c2cc3c(cc2F)S(=O)(=O)C[C@H](N)C(=O)N3Cc2ccc(Cl)cc2)c1 [Example 282, (3R)-3-amino-7-(4-tert-butylpyrazol-1-yl)-5-[(4-chlorophenyl)methyl]-8-fluoro-1,1-dioxo-2,3-dihydro-1λ^6,5-benzothiazepin-4-one] | 96 | 5490 | 3710 | 74 | 880 | – | – | – | – | – | – | –
CC(C)(C)n1cnc(-c2cc3c(cc2F)S(=O)(=O)C[C@H](N)C(=O)N3Cc2ccc(Cl)cc2)n1 [Example 286, (3R)-3-amino-7-(1-tert-butyl-1,2,4-triazol-3-yl)-5-[(4-chlorophenyl)methyl]-8-fluoro-1,1-dioxo-2,3-dihydro-1λ^6,5-benzothiazepin-4-one] | 93 | 338 | > 20000 | 100 | 80 | – | – | – | – | – | – | –
CC(C)(C)c1nc(-c2cc3c(cc2F)S(=O)(=O)C[C@H](N)C(=O)N3Cc2ccc(Cl)cc2)no1 [Example 289, (3R)-3-amino-7-(5-tert-butyl-1,2,4-oxadiazol-3-yl)-5-[(4-chlorophenyl)methyl]-8-fluoro-1,1-dioxo-2,3-dihydro-1λ^6,5-benzothiazepin-4-one] | 124 | 187 | 158 | 97 | – | – | – | – | – | – | – | 120
CN1CC(c2nc(-c3cc4c(cc3F)S(=O)(=O)C[C@H](N)C(=O)N4Cc3ccc(Cl)cc3)no2)CC(F)(F)C1 (stereo partly drawn) [Example 323, (3R)-3-amino-5-[(4-chlorophenyl)methyl]-7-[5-(5,5-difluoro-1-methyl-3-piperidyl)-1,2,4-oxadiazol-3-yl]-8-fluoro-1,1-dioxo-2,3-dihydro-1λ^6,5-benzothiazepin-4-one] | 109 | 229 | 403 | 100 | 90 | – | – | – | – | – | – | –
N[C@H]1CS(=O)(=O)c2ccc(-c3nnc(N4CCOC(F)(F)C4)o3)cc2N(Cc2ccc(Cl)cc2)C1=O [Example 391, (3R)-3-amino-5-[(4-chlorophenyl)methyl]-7-[5-(2,2-difluoromorpholin-4-yl)-1,3,4-oxadiazol-2-yl]-1,1-dioxo-2,3-dihydro-1λ^6,5-benzothiazepin-4-one] | 157 | 207 | 284 | 100 | – | – | – | – | – | – | – | 70
CN(CC(F)(F)F)c1nnc(-c2ccc3c(c2)N(Cc2ccc(Cl)cc2)C(=O)[C@@H](N)CS3(=O)=O)o1 [Example 392, (3R)-3-amino-5-[(4-chlorophenyl)methyl]-7-[5-[methyl(2,2,2-trifluoroethyl)amino]-1,3,4-oxadiazol-2-yl]-1,1-dioxo-2,3-dihydro-1λ^6,5-benzothiazepin-4-one] | 96 | 948 | 568 | 92 | 210 | – | – | – | – | – | – | –
N[C@H]1CS(=O)(=O)c2ccc(-c3nnc(NC4CC(F)(F)C4)o3)cc2N(Cc2ccc(Cl)cc2)C1=O [Example 397, (3R)-3-amino-5-[(4-chlorophenyl)methyl]-7-[5-[(3,3-difluorocyclobutyl)amino]-1,3,4-oxadiazol-2-yl]-1,1-dioxo-2,3-dihydro-1λ^6,5-benzothiazepin-4-one] | 82 | 2190 | 649 | 92 | 1850 | – | – | – | – | – | – | –
N[C@H]1CS(=O)(=O)c2ccc(-c3nnc(NC4CCCC(F)(F)C4)o3)cc2N(Cc2ccc(Cl)cc2)C1=O (stereo partly drawn) [Example 401, (3R)-3-amino-5-[(4-chlorophenyl)methyl]-7-[5-[(3,3-difluorocyclohexyl)amino]-1,3,4-oxadiazol-2-yl]-1,1-dioxo-2,3-dihydro-1λ^6,5-benzothiazepin-4-one] | 69 | 1130 | 446 | 92 | 1540 | – | – | – | – | – | – | –
